{
  "source": "PubChem BioAssay (NCI)",
  "test_in_all_cases": "DTP human tumour cell line panel, 48 h",
  "key": {"CCRF-CEM leukemia": {"test_system": "CCRF-CEM leukemia"}, "NCI-H522 lung": {"test_system": "NCI-H522 lung"}, "TK-10 renal": {"test_system": "TK-10 renal"}, "786-0 renal": {"test_system": "786-0 renal"}, "MOLT-4 leukemia": {"test_system": "MOLT-4 leukemia"}, "M14 melanoma": {"test_system": "M14 melanoma"}, "HCC-2998 colon": {"test_system": "HCC-2998 colon"}, "UACC-62 melanoma": {"test_system": "UACC-62 melanoma"}, "SF-295 CNS": {"test_system": "SF-295 CNS"}, "ACHN renal": {"test_system": "ACHN renal"}, "HL-60(TB) leukemia": {"test_system": "HL-60(TB) leukemia"}, "RXF 393 renal": {"test_system": "RXF 393 renal"}, "DU-145 prostate": {"test_system": "DU-145 prostate"}, "BT-549 breast": {"test_system": "BT-549 breast"}, "SF-539 CNS": {"test_system": "SF-539 CNS"}, "OVCAR-3 ovarian": {"test_system": "OVCAR-3 ovarian"}, "RPMI-8226 leukemia": {"test_system": "RPMI-8226 leukemia"}, "OVCAR-4 ovarian": {"test_system": "OVCAR-4 ovarian"}, "SK-MEL-28 melanoma": {"test_system": "SK-MEL-28 melanoma"}, "NCI-H460 lung": {"test_system": "NCI-H460 lung"}, "U251 CNS": {"test_system": "U251 CNS"}, "T-47D breast": {"test_system": "T-47D breast"}, "SNB-19 CNS": {"test_system": "SNB-19 CNS"}, "MDA-MB-435": {"test_system": "MDA-MB-435"}, "NCI-H226 lung": {"test_system": "NCI-H226 lung"}, "K-562 leukemia": {"test_system": "K-562 leukemia"}, "SK-MEL-2 melanoma": {"test_system": "SK-MEL-2 melanoma"}, "MCF7 breast": {"test_system": "MCF7 breast"}},
  "note": "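Five concentrations, 48 hours, 96-well plates. Here, GI50 denotes the concentration required for 50% inhibition of growth. TGI denotes the concentration required for complete inhibition of growth.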",
  "data": [
    {"smiles": "CC1=C2C(=C[C@@](C)(CO)[C@@H]2OC(=O)N(C)CCN(C)C(=O)OC(C)(C)C)C(=O)[C@](C)(O)C12CC2", "values": [
      {"measurement": "TGI", "setting": "CCRF-CEM leukemia", "result": "> 50", "unit": "µM"},
      {"measurement": "GI50", "setting": "NCI-H522 lung", "result": 6.27, "unit": "µM"},
      {"measurement": "TGI", "setting": "NCI-H522 lung", "result": 25.2, "unit": "µM"},
      {"measurement": "GI50", "setting": "TK-10 renal", "result": 13.6, "unit": "µM"},
      {"measurement": "TGI", "setting": "TK-10 renal", "result": 35.2, "unit": "µM"},
      {"measurement": "GI50", "setting": "786-0 renal", "result": 11.6, "unit": "µM"},
      {"measurement": "TGI", "setting": "786-0 renal", "result": 37.8, "unit": "µM"},
      {"measurement": "GI50", "setting": "MOLT-4 leukemia", "result": 31.5, "unit": "µM"},
      {"measurement": "TGI", "setting": "MOLT-4 leukemia", "result": "> 50", "unit": "µM"},
      {"measurement": "GI50", "setting": "M14 melanoma", "result": 6.36, "unit": "µM"},
      {"measurement": "TGI", "setting": "M14 melanoma", "result": 20.8, "unit": "µM"},
      {"measurement": "GI50", "setting": "HCC-2998 colon", "result": 8.3, "unit": "µM"},
      {"measurement": "TGI", "setting": "HCC-2998 colon", "result": 26.2, "unit": "µM"},
      {"measurement": "GI50", "setting": "UACC-62 melanoma", "result": 8.33, "unit": "µM"},
      {"measurement": "TGI", "setting": "UACC-62 melanoma", "result": 17.8, "unit": "µM"},
      {"measurement": "GI50", "setting": "SF-295 CNS", "result": 1.8, "unit": "µM"},
      {"measurement": "TGI", "setting": "SF-295 CNS", "result": 33.1, "unit": "µM"},
      {"measurement": "GI50", "setting": "ACHN renal", "result": 2.6, "unit": "µM"},
      {"measurement": "TGI", "setting": "ACHN renal", "result": 32.6, "unit": "µM"},
      {"measurement": "GI50", "setting": "HL-60(TB) leukemia", "result": 2.3, "unit": "µM"},
      {"measurement": "TGI", "setting": "HL-60(TB) leukemia", "result": 46.4, "unit": "µM"},
      {"measurement": "GI50", "setting": "RXF 393 renal", "result": 1.22, "unit": "µM"},
      {"measurement": "TGI", "setting": "RXF 393 renal", "result": 4.06, "unit": "µM"},
      {"measurement": "GI50", "setting": "DU-145 prostate", "result": 1.78, "unit": "µM"},
      {"measurement": "TGI", "setting": "DU-145 prostate", "result": 32.4, "unit": "µM"},
      {"measurement": "GI50", "setting": "BT-549 breast", "result": 6.61, "unit": "µM"},
      {"measurement": "TGI", "setting": "BT-549 breast", "result": 20.6, "unit": "µM"},
      {"measurement": "GI50", "setting": "SF-539 CNS", "result": 7.92, "unit": "µM"},
      {"measurement": "TGI", "setting": "SF-539 CNS", "result": 21.2, "unit": "µM"},
      {"measurement": "GI50", "setting": "OVCAR-3 ovarian", "result": 2.31, "unit": "µM"},
      {"measurement": "TGI", "setting": "OVCAR-3 ovarian", "result": 21, "unit": "µM"},
      {"measurement": "GI50", "setting": "RPMI-8226 leukemia", "result": 5.83, "unit": "µM"},
      {"measurement": "TGI", "setting": "RPMI-8226 leukemia", "result": 43.8, "unit": "µM"},
      {"measurement": "GI50", "setting": "OVCAR-4 ovarian", "result": 4.68, "unit": "µM"},
      {"measurement": "TGI", "setting": "OVCAR-4 ovarian", "result": 22.6, "unit": "µM"},
      {"measurement": "GI50", "setting": "SK-MEL-28 melanoma", "result": 9.83, "unit": "µM"},
      {"measurement": "TGI", "setting": "SK-MEL-28 melanoma", "result": 26.5, "unit": "µM"},
      {"measurement": "GI50", "setting": "NCI-H460 lung", "result": 1.45, "unit": "µM"},
      {"measurement": "TGI", "setting": "NCI-H460 lung", "result": 5.42, "unit": "µM"},
      {"measurement": "GI50", "setting": "U251 CNS", "result": 5.25, "unit": "µM"},
      {"measurement": "TGI", "setting": "U251 CNS", "result": 46.1, "unit": "µM"},
      {"measurement": "GI50", "setting": "T-47D breast", "result": 5.05, "unit": "µM"},
      {"measurement": "TGI", "setting": "T-47D breast", "result": 35.2, "unit": "µM"},
      {"measurement": "GI50", "setting": "SNB-19 CNS", "result": 10.9, "unit": "µM"},
      {"measurement": "TGI", "setting": "SNB-19 CNS", "result": "> 50", "unit": "µM"},
      {"measurement": "GI50", "setting": "MDA-MB-435", "result": 9.74, "unit": "µM"},
      {"measurement": "TGI", "setting": "MDA-MB-435", "result": 23.1, "unit": "µM"},
      {"measurement": "GI50", "setting": "NCI-H226 lung", "result": 11.7, "unit": "µM"},
      {"measurement": "TGI", "setting": "NCI-H226 lung", "result": 34.7, "unit": "µM"},
      {"measurement": "GI50", "setting": "K-562 leukemia", "result": 21.4, "unit": "µM"},
      {"measurement": "TGI", "setting": "K-562 leukemia", "result": "> 50", "unit": "µM"},
      {"measurement": "GI50", "setting": "SK-MEL-2 melanoma", "result": 7.63, "unit": "µM"},
      {"measurement": "TGI", "setting": "SK-MEL-2 melanoma", "result": 17.3, "unit": "µM"},
      {"measurement": "GI50", "setting": "MCF7 breast", "result": 3.35, "unit": "µM"},
      {"measurement": "TGI", "setting": "MCF7 breast", "result": "> 50", "unit": "µM"}
    ]}
  ]
}
